Data: US20220363665A1, “QUINOLINE COMPOUNDS FOR THE TREATMENT OF AUTOIMMUNE DISEASE” (Hoffmann-La Roche Inc., priority 2019, published 2022)

Legend:
Format in all cases: in vitro ADME
CYP2D6 = target: T1, CYP2D6 (Homo sapiens, UniProt P10635); assay: CYP inhibition assay in human liver microsome, CYP2D6; settings: HLM, dextromethorphan substrate; for inhibition at 10 min, 10 µM: human, liver microsomes, probe dextromethorphan, read-out: CYP inhibition % @10 uM (2D6)
T1 construct: tissue BD-Gentest 452117; host or cells: human liver microsomes
Protocol: (§1) This is a high throughput screening assay used for assessment of reversible inhibition of CYP2C9, CYP2D6, and CYP3A4 activity of test compounds in human liver microsome (HLM) in early discovery stage.
(§2) 10 mM DMSO stock solutions of test compounds were diluted in DMSO to generate 2 mM intermediate stock solution. 250 nL of intermediate stock solution were transferred in duplicate into 3 separate 384 well microtitre plates (assay-ready plates). A mixture of HLM and each substrate was made up. 45 μL of HLM substrate mix was then transferred to each well of an assay ready plate and mixed. The negative (solvent) and positive controls (standard inhibitor for each CYP) were included in each assay ready plate. The assay ready plate was warmed to 37° C. in an incubator over 10 minutes. 5 μL pre-warmed NADPH regenerating system was added to each incubation well to start the reaction. Final incubation volume was 50 μL. The assay plate then was placed back in the 37° C. incubator. After 5 minutes incubation (10 minutes for CYP2D6), incubates were quenched by addition of 50 μL quench reagent containing internal standards (400 ng/mL 13C6-4′-OH-Diclofenac, 20 ng/mL D3-Dextrorphan and 20 ng/mL D4-1′OH-Midazolam in acetonitrile). The supernatants were collected for RapidFire/MS/MS analysis.
(§3) RapidFire online solid phase extraction/sample injection system (Agilent) coupled with API4000 triple quadrupole mass spectrometer (AB Sciex) were used for sample analysis. The mobile phase composed of acetonitrile and water supplemented with 0.1% formic acid. A C4 solid phase extraction cartridge is used for sample separation. MS detection is achieved in positive ion MRM mode.
(§4) Peak areas for substrate, metabolite and internal standard are determined using the
(§5) RapidFire integrator software (version 3.6.12009.12296). Peak area ratios (PAR) of metabolite and internal standard (stable-labelled metabolite) are then calculated. The measurement window for each experiment is then defined:
(§6) PAR (0% activity)=average PAR for all incubations containing concentrated inhibitor;
(§7) Par (100% activity)=average PAR for all incubations containing no inhibitor (DMSO controls);
(§8) % Activity (test inhibitor) =[PAR(test inhibitor)-PAR(0% activity)][PAR(100% activity)-PAR(0% activity)];
(§9) % Inhibition (test inhibitor)=100-% Activity (test inhibitor).
(§10) Percentage inhibition data are then reported, in duplicate, for the 3 CYP enzymes.

CYP3A4 = target: T2, CYP3A4 (Homo sapiens, UniProt P08684); assay: CYP inhibition assay in human liver microsome, CYP3A4; settings: HLM, midazolam substrate; for inhibition at 5 min, 10 µM: human, liver microsomes, probe midazolam, read-out: CYP inhibition % @10 uM (3A4)
T2 construct: tissue BD-Gentest 452117; host or cells: human liver microsomes
Protocol: as §1, §2, §3, §4, §5, §6, §7, §8, §9, §10

CYP2C9 = target: T3, CYP2C9 (Homo sapiens, UniProt P11712); assay: CYP inhibition assay in human liver microsome, CYP2C9; settings: HLM, diclofenac substrate; for inhibition at 5 min, 10 µM: human, liver microsomes, probe diclofenac, read-out: CYP inhibition % @10 uM (2C9)
T3 construct: tissue BD-Gentest 452117; host or cells: human liver microsomes
Protocol: as §1, §2, §3, §4, §5, §6, §7, §8, §9, §10

T1 sequence (P10635 whole entry): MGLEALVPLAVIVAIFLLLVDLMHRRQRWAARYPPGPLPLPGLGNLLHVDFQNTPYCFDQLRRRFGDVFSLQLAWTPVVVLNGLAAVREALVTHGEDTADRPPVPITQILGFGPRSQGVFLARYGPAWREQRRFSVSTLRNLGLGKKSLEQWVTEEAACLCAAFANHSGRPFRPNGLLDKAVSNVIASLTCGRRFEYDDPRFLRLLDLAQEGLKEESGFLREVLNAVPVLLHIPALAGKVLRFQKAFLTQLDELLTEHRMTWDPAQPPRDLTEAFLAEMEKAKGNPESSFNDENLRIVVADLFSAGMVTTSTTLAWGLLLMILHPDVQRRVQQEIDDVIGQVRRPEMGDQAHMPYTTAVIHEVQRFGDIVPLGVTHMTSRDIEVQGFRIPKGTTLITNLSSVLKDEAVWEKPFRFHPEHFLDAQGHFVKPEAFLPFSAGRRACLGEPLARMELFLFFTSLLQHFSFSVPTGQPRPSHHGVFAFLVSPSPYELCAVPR
T2 sequence (P08684 whole entry): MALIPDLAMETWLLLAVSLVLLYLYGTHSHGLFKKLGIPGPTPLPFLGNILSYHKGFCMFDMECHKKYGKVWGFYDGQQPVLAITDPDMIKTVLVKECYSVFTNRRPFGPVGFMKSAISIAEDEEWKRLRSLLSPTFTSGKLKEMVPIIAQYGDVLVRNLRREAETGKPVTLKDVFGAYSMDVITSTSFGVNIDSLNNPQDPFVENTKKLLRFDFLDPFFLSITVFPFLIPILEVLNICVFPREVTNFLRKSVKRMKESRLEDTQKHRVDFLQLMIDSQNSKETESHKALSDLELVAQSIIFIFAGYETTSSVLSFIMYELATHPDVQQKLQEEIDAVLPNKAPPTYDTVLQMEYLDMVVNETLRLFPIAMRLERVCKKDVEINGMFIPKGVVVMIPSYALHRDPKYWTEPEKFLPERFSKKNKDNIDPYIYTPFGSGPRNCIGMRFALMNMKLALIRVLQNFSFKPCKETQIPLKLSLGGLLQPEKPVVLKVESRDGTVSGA
T3 sequence (P11712 whole entry): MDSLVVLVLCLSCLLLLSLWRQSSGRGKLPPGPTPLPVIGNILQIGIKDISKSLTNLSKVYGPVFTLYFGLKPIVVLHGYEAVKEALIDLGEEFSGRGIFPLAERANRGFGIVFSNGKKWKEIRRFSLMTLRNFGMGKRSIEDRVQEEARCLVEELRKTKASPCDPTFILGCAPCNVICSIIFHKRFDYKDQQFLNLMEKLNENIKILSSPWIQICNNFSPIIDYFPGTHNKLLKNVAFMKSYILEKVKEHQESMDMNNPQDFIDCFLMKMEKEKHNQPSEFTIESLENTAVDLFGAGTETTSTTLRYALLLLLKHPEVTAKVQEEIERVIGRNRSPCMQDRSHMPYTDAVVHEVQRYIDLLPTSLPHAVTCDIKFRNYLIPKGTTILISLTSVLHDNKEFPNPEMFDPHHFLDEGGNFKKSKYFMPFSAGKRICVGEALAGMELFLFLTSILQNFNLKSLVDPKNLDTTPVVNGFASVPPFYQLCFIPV

| Compound | CYP inhibition % @10 uM (2D6) (CYP2D6) | CYP inhibition % @10 uM (3A4) (CYP3A4) | CYP inhibition % @10 uM (2C9) (CYP2C9) | inhibition at 10 min, 10 µM (CYP2D6) | inhibition at 5 min, 10 µM (CYP3A4) | inhibition at 5 min, 10 µM (CYP2C9) |
| --- | --- | --- | --- | --- | --- | --- |
| C[C@@H]1CN(c2ccc(C(F)(F)F)c3ncccc23)C[C@H](C(=O)NC2CC3CNCC32)O1 (single isomer, unassigned) [Example 49B] | −12% | −36% | −2% |  |  |  |
| C[C@@H]1CN(c2ccc(C(F)(F)F)c3ncccc23)C[C@H](C(=O)N2CCC3(CCNCC3)CC2)O1 [Example 32, 3,9-diazaspiro[5.5]undecan-3-yl-[(2R,6R)-6-methyl-4-[8-(trifluoromethyl)-5-quinolyl]morpholin-2-yl]methanone] |  |  |  | -22% | -2% | -8% |
| C[C@@H]1CN(c2ccc(C(F)(F)F)c3ncccc23)C[C@H](C(=O)NC2CC3CCCC(C2)N3)O1 (single isomer, unassigned) [Example 34A] | 3% |  | −6% |  |  |  |
| C[C@@H]1CN(c2ccc([N+](=O)[O-])c3ncccc23)C[C@H](C(=O)NCC2CN(C)CCO2)O1 (stereo partly drawn) [Example 18, (2R,6R)-6-methyl-N-[(4-methylmorpholin-2-yl)methyl]-4-(8-nitro-5-quinolyl)morpholine-2-carboxamide] |  |  |  | 0% | 11% | -4% |
| C[C@@H]1CN(c2ccc(C(F)(F)F)c3ncccc23)C[C@H](C(=O)NC2CN(C)CC23CC3)O1 (stereo partly drawn) [Example 9, (2R,6R)-6-methyl-N-(5-methyl-5-azaspiro[2.4]heptan-7-yl)-4-[8-(trifluoromethyl)-5-quinolyl]morpholine-2-carboxamide] |  |  |  | 6% | -18% | 2% |
| C[C@H]1C[C@@H](N)CN(c2ccc(Cl)c3ncccc23)C1 [Example 23, (3R,5S)-1-(8-chloro-5-quinolyl)-5-methyl-piperidin-3-amine] |  |  |  | 35% |  | -16% |
| C[C@@H]1CN(c2ccc([N+](=O)[O-])c3ncccc23)C[C@H](C(=O)NC2CCN(C)CC2)O1 [Example 20, (2R,6R)-6-methyl-N-(1-methyl-4-piperidyl)-4-(8-nitro-5-quinolyl)morpholine-2-carboxamide] |  |  |  | -12% | 6% | -6% |
| CC(NC(=O)[C@H]1CN(c2ccc(C(F)(F)F)c3ncccc23)C[C@@H](C)O1)C1CN(C)CCO1 (single isomer, unassigned) [Example 35A] | 8% |  |  |  |  | 10% |
| C[C@@H]1CN(c2ccc(C(F)(F)F)c3ncccc23)C[C@H](C(=O)NC2CC3CNCC32)O1 (single isomer, unassigned) [Example 49A] | 2% | −25% | −1% |  |  |  |
| C[C@@H]1CN(c2ccc(C(F)(F)F)c3ncccc23)C[C@H](C(=O)N2CCC3(CCNC3)C2)O1 (some centres unmarked) [Example 36] |  |  |  | -10% |  | 1% |
| C[C@@H]1CN(c2ccc(C(F)(F)F)c3ncccc23)C[C@H](C(=O)NC2CC3CNCC32)O1 (single isomer, unassigned) [Example 49C] | 8% |  | 11% |  |  |  |

Second part, the molecule after the results:

| CYP inhibition % @10 uM (2D6) (CYP2D6) | CYP inhibition % @10 uM (3A4) (CYP3A4) | CYP inhibition % @10 uM (2C9) (CYP2C9) | inhibition at 10 min, 10 µM (CYP2D6) | inhibition at 5 min, 10 µM (CYP3A4) | inhibition at 5 min, 10 µM (CYP2C9) | Compound |
| --- | --- | --- | --- | --- | --- | --- |
|  |  |  | 5% | -28% | -4% | C[C@@H]1CN(c2ccc(C(F)(F)F)c3ncccc23)C[C@H](C(=O)NCC2COCCN2C)O1 (stereo partly drawn) [Example 11, (2R,6R)-6-methyl-N-[(4-methylmorpholin-3-yl)methyl]-4-[8-(trifluoromethyl)-5-quinolyl]morpholine-2-carboxamide] |
|  |  |  | 16% | -13% | -1% | C[C@@H]1CN(c2ccc(C(F)(F)F)c3ncccc23)C[C@H](C(=O)NC2CCN(C)CC2)O1 [Example 5, (2R,6R)-6-methyl-N-(1-methyl-4-piperidyl)-4-[8-(trifluoromethyl)-5-quinolyl]morpholine-2-carboxamide] |
|  |  |  | 26% | 10% | 11% | C[C@@H]1CN(c2ccc(C(F)(F)F)c3ncccc23)C[C@H](C(=O)N2CCC(N)C2)O1 (stereo partly drawn) [Example 10, (3-aminopyrrolidin-1-yl)-[(2R,6R)-6-methyl-4-[8-(trifluoromethyl)-5-quinolyl]morpholin-2-yl]methanone] |
|  |  |  | 10% | -34% | -8% | C[C@@H]1CN(c2ccc(C(F)(F)F)c3ncccc23)C[C@H](C(=O)NC2CCCNCC2)O1 (stereo partly drawn) [Example 8, (2R,6R)-N-(azepan-4-yl)-6-methyl-4-[8-(trifluoromethyl)-5-quinolyl]morpholine-2-carboxamide] |
|  |  |  | 16% | -11% | -1% | C[C@@H]1CN(c2ccc(C(F)(F)F)c3ncccc23)C[C@H](C(=O)NCC2CN(C)CCO2)O1 (stereo partly drawn) [Example 3, (2R,6R)-6-methyl-N-[(4-methylmorpholin-2-yl)methyl]-4-[8-(trifluoromethyl)-5-quinolyl]morpholine-2-carboxamide] |
|  |  |  | -3% |  | -4% | C[C@@H]1CN(c2ccc(Br)c3ncccc23)C[C@H](C(=O)NC2CCN(C)CC2)O1 [Example 42, (2R,6R)-4-(8-bromo-5-quinolyl)-6-methyl-N-(1-methyl-4-piperidyl)morpholine-2-carboxamide] |
|  |  |  | 10% | -14% | -12% | C[C@@H]1CN(c2ccc(C(F)(F)F)c3ncccc23)C[C@H](C(=O)NCC2CCCCN2C)O1 (stereo partly drawn) [Example 4, (2R,6R)-6-methyl-N-[(1-methyl-2-piperidyl)methyl]-4-[8-(trifluoromethyl)-5-quinolyl]morpholine-2-carboxamide] |
|  |  |  | -1% | -2% | -3% | C[C@@H]1CN(c2ccc(I)c3ncccc23)C[C@H](C(=O)NC2CCN(C)CC2)O1 [Example 38, (2R,6R)-4-(8-iodo-5-quinolyl)-6-methyl-N-(1-methyl-4-piperidyl)morpholine-2-carboxamide] |
|  |  |  | 2% | -29% | -1% | C[C@@H]1CN(c2ccc(C(F)(F)F)c3ncccc23)C[C@H](C(=O)NC2C3CCC2CNC3)O1 (stereo partly drawn) [Example 31, (2R,6R)-N-(3-azabicyclo[3.2.1]octan-8-yl)-6-methyl-4-[8-(trifluoromethyl)-5-quinolyl]morpholine-2-carboxamide] |
|  |  |  | 3% | -5% | -4% | Cc1ccc(N2C[C@@H](C)O[C@@H](C(=O)NCC3CN(C)CCO3)C2)c2cccnc12 (stereo partly drawn) [Example 17, (2R,6R)-6-methyl-N-[(4-methylmorpholin-2-yl)methyl]-4-(8-methyl-5-quinolyl)morpholine-2-carboxamide] |
|  |  |  | -6% |  | -20% | C[C@@H]1CN(c2ccc(Cl)c3ncccc23)C[C@H](C(=O)NC2CCN(C)CC2)O1 [Example 24, (2R,6R)-4-(8-chloro-5-quinolyI)-6-methyl-N-(1-methyl-4-piperidyl)morpholine-2-carboxamide] |
| 2% |  | 6% |  |  |  | CC(NC(=O)[C@H]1CN(c2ccc(C(F)(F)F)c3ncccc23)C[C@@H](C)O1)C1CN(C)CCO1 (single isomer, unassigned) [Example 35B] |
|  |  |  | 7% |  | 12% | C[C@@H]1CN(c2ccc(C(F)(F)F)c3ncccc23)C[C@H](C(=O)N2CCC(N)CC2)O1 [Example 12, (4-amino-1-piperidyl)-[(2R,6R)-6-methyl-4-[8-(trifluoromethyl)-5-quinolyl]morpholin-2-yl]methanone] |
|  |  |  | 3% |  | 4% | C[C@@H]1CN(c2ccc(C(F)(F)F)c3ncccc23)C[C@H](C(=O)NC2CC3CNCC(C3)C2)O1 (stereo partly drawn) [Example 37, (2R,6R)-N-(3-azabicyclo[3.3.1]nonan-7-yl)-6-methyl-4-[8-(trifluoromethyl)-5-quinolyl]morpholine-2-carboxamide] |
